Consider nine compounds from ChEMBL document CHEMBL1139607, “Synthetic lanostane-type triterpenoids as inhibitors of DNA topoisomerase II” (Bioorg Med Chem Lett, 2005).

In general, IC50 refers to the concentration needed to halve the response being measured. A higher IC50 goes with weaker potency in that assay.

Assay [1] has as its target DNA topoisomerase II (Homo sapiens, UniProt P11388+Q02880). In words: Inhibitory concentration against human DNA topoisomerase II. It counts as protein assay.
The subject of assay [2] is A549. In words: Effective dose on human lung carcinoma (A549) cells. It counts as functional. Particulars: read-out: ED50 (the source's name).

As for `C[C@H](CC[C@@H](O)C(C)(C)O)[C@H]1CC[C@]2(C)C3CCC4C(C)(C)C(=O)C(C(=O)O)=C[C@]4(C)C3=CC[C@]12C` (some centres not stated), the IC50 in assay [1] is 23.8 µM. The EC50 in assay [2] was 7.33 µM. The like results for `C[C@H](CC[C@@H](O)C(C)(C)O)[C@H]1CC[C@]2(C)C3CCC4C(C)(C)C(=O)C(C=O)=C[C@]4(C)C3=CC[C@]12C` (some centres not stated) were, in that order, 1.86 µM and 13.1 µM. `C[C@H](CC[C@@H](O)C(C)(C)O)[C@H]1CC[C@]2(C)C3CCC4C(C)(C)C(=O)C=C[C@]4(C)C3=CC[C@]12C` (some centres not stated) came in with an IC50 in assay [1] of 149.97 µM. The EC50 in assay [2] came out at 26.9 µM.

In assay [1], `C[C@H](CC[C@@H](O)C(C)(C)O)[C@H]1CC[C@]2(C)C3CCC4C(C)(C)C(=O)C(C#N)=C[C@]4(C)C3=CC[C@]12C` (some centres not stated) displayed an IC50 of 83.23 µM. Also, the EC50 in assay [2] came to 25.5 µM. For the compound `COC1=C[C@]2(C)C3=CC[C@]4(C)[C@@H]([C@H](C)CC[C@@H](O)C(C)(C)O)CC[C@]4(C)C3CCC2C(C)(C)C1=O` (some centres not stated), in assay [1], the IC50 was 22.7 µM. Besides, the EC50 in assay [2] was determined as 29.6 µM. Take `C[C@H](CC[C@@H](O)C(C)(C)O)[C@H]1CC[C@]2(C)C3CCC4C(C)(C)C(=O)C(Cl)=C[C@]4(C)C3=CC[C@]12C` (some centres not stated): the 50% inhibitory concentration (IC50) in assay [1] came to 106.8 µM. Besides, in assay [2], the EC50 came out at 38.1 µM. On to `C[C@H](CC[C@@H](O)C(C)(C)O)[C@H]1CC[C@]2(C)C3CCC4C(C)(C)C(=O)C(Br)=C[C@]4(C)C3=CC[C@]12C` (some centres not stated), for which the IC50 in assay [1] is 18.27 µM. Besides, the EC50 in assay [2] stood at 14.3 µM.

The compound `COC(=O)C1=C[C@]2(C)C3=CC[C@]4(C)[C@@H]([C@H](C)CC[C@@H](O)C(C)(C)O)CC[C@]4(C)C3CCC2C(C)(C)C1=O` (some centres not stated) came in with an IC50 in assay [1] of 66.51 µM. Also, in assay [2], the EC50 worked out at 3.96 µM. On to `COc1cc([C@@H]2c3cc4c(cc3[C@@H](O[C@@H]3O[C@@H]5CO[C@@H](C)O[C@H]5[C@H](O)[C@H]3O)[C@H]3COC(=O)[C@H]23)OCO4)cc(OC)c1O` [ETOPOSIDE], for which, in assay [2], the EC50 came to 3.39 µM.
